From PMC12090182, “Repurposing of the RIPK1-Selective Benzo[1,4]oxazepin-4-one Scaffold for the Development of a Type III LIMK1/2 Inhibitor” (ACS Chemical Biology, 2025)

What was measured:
Experiment in all cases: biochemical
Format in all cases: binding
[1] = target: 468 kinases including some pathogenic mutants (Homo sapiens, UniProt Q9NRH2); conditions: SNRK (Entrez SNRK), 1000 nM; read-out: Percent Control
[2] = target: 468 kinases including some pathogenic mutants (Homo sapiens, UniProt P10721, V559D); conditions: read-out: Percent Control
[3] = target: 468 kinases including some pathogenic mutants (Homo sapiens, UniProt O60674); conditions: JAK2(JH1domain-catalytic) (Entrez JAK2), 1000 nM; read-out: Percent Control
[4] = target: 468 kinases including some pathogenic mutants (Homo sapiens, UniProt Q13470); conditions: TNK1 (Entrez TNK1), 100 nM; read-out: Percent Control
[5] = target: 468 kinases including some pathogenic mutants (Homo sapiens, UniProt P36888, R834Q); conditions: read-out: Percent Control
[6] = target: 468 kinases including some pathogenic mutants (Homo sapiens, UniProt Q9UIK4); conditions: DAPK2 (Entrez DAPK2), 100 nM; read-out: Percent Control
[7] = target: 468 kinases including some pathogenic mutants (Homo sapiens, UniProt O94768); conditions: DRAK2 (Entrez STK17B), 100 nM; read-out: Percent Control
[8] = target: 468 kinases including some pathogenic mutants (Homo sapiens, UniProt P49137); conditions: MAPKAPK2 (Entrez MAPKAPK2), 100 nM; read-out: Percent Control
[9] = target: 468 kinases including some pathogenic mutants (Homo sapiens, UniProt O94806); conditions: PRKD3 (Entrez PRKD3), 100 nM; read-out: Percent Control
[10] = target: 468 kinases including some pathogenic mutants (Homo sapiens, UniProt P00533, G719C); conditions: read-out: Percent Control
[11] = target: 468 kinases including some pathogenic mutants (Homo sapiens, UniProt P49336); conditions: CDK8 (Entrez CDK8), 100 nM; read-out: Percent Control
[12] = target: 468 kinases including some pathogenic mutants (Homo sapiens, UniProt O14730); conditions: RIOK3 (Entrez RIOK3), 100 nM; read-out: Percent Control
[13] = target: 468 kinases including some pathogenic mutants (Homo sapiens, UniProt P00533, DEL746-750); conditions: read-out: Percent Control
[14] = target: 468 kinases including some pathogenic mutants (Homo sapiens, UniProt P06213); conditions: INSR (Entrez INSR), 100 nM; read-out: Percent Control
[15] = target: 468 kinases including some pathogenic mutants (Homo sapiens, UniProt P37023); conditions: ACVRL1 (Entrez ACVRL1), 100 nM; read-out: Percent Control
[16] = target: 468 kinases including some pathogenic mutants (Homo sapiens, UniProt P51451); conditions: BLK (Entrez BLK), 100 nM; read-out: Percent Control
[17] = target: 468 kinases including some pathogenic mutants (Homo sapiens, UniProt Q15208); conditions: NDR1 (Entrez STK38), 100 nM; read-out: Percent Control
[18] = target: 468 kinases including some pathogenic mutants (Homo sapiens, UniProt P07949); conditions: RET (Entrez RET), 1000 nM; read-out: Percent Control
[19] = target: 468 kinases including some pathogenic mutants (Homo sapiens, UniProt Q02763); conditions: TIE2 (Entrez TEK), 1000 nM; read-out: Percent Control
[20] = target: 468 kinases including some pathogenic mutants (Homo sapiens, UniProt P35968); conditions: VEGFR2 (Entrez KDR), 100 nM; read-out: Percent Control
[21] = target: 468 kinases including some pathogenic mutants (Homo sapiens, UniProt Q8NG66); conditions: NEK11 (Entrez NEK11), 100 nM; read-out: Percent Control
[22] = target: 468 kinases including some pathogenic mutants (Homo sapiens, UniProt P09619); conditions: PDGFRB (Entrez PDGFRB), 100 nM; read-out: Percent Control
[23] = target: 468 kinases including some pathogenic mutants (Homo sapiens, UniProt Q16288); conditions: TRKC (Entrez NTRK3), 100 nM; read-out: Percent Control
[24] = target: 468 kinases including some pathogenic mutants (Homo sapiens, UniProt P48729); conditions: CSNK1A1 (Entrez CSNK1A1), 100 nM; read-out: Percent Control
[25] = target: 468 kinases including some pathogenic mutants (Homo sapiens, UniProt Q04771); conditions: ACVR1 (Entrez ACVR1), 100 nM; read-out: Percent Control
[26] = target: 468 kinases including some pathogenic mutants (Homo sapiens, UniProt Q16816); conditions: PHKG1 (Entrez PHKG1), 100 nM; read-out: Percent Control
[27] = target: 468 kinases including some pathogenic mutants (Homo sapiens, UniProt Q6PHR2); conditions: ULK3 (Entrez ULK3), 100 nM; read-out: Percent Control
[28] = target: 468 kinases including some pathogenic mutants (Homo sapiens, UniProt O00444); conditions: PLK4 (Entrez PLK4), 100 nM; read-out: Percent Control
[29] = target: 468 kinases including some pathogenic mutants (Homo sapiens, UniProt Q8WTQ7); conditions: GRK7 (Entrez GRK7), 100 nM; read-out: Percent Control

Sequence of 468 kinases including some pathogenic mutants (Homo sapiens, UniProt P48729) (P48729 whole entry, change not shown): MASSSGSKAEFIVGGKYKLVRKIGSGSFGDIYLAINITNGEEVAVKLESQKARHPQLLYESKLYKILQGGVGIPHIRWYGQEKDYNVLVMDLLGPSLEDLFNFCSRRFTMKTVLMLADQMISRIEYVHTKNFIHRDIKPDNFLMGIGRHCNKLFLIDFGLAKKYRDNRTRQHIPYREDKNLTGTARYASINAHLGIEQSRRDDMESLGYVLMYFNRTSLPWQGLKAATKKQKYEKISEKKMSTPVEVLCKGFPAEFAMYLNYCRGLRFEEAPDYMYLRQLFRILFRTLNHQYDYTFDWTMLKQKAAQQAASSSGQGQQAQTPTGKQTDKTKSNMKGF
Sequence of 468 kinases including some pathogenic mutants (Homo sapiens, UniProt Q02763) (Q02763 23-1124, change not shown): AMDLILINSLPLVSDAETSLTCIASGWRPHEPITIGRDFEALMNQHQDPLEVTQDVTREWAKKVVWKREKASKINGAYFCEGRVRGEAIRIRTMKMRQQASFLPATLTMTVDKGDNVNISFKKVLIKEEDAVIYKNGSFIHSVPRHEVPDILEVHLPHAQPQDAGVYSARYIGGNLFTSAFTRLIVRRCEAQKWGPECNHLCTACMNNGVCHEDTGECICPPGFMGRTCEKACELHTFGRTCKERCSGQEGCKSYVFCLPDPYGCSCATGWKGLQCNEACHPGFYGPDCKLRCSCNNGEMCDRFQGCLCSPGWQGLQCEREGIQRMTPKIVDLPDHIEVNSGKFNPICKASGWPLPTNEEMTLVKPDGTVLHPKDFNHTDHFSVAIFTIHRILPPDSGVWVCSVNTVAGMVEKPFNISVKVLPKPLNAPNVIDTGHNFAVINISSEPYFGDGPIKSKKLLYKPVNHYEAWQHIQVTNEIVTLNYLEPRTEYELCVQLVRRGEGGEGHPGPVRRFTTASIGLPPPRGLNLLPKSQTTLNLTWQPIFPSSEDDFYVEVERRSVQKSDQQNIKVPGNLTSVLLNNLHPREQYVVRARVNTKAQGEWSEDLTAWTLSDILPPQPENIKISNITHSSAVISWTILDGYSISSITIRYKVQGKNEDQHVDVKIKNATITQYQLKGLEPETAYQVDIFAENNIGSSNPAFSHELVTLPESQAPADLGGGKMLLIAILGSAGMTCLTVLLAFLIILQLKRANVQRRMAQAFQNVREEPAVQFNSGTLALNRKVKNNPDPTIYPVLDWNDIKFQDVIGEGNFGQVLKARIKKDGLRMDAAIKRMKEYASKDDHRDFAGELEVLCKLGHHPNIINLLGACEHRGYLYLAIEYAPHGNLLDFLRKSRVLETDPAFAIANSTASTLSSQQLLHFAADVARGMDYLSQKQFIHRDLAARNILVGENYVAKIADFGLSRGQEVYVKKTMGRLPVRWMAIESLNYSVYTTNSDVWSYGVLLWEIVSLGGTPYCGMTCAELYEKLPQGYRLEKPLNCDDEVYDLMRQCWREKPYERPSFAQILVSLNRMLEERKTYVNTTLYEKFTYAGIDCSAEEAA
Sequence of 468 kinases including some pathogenic mutants (Homo sapiens, UniProt O14730) (O14730 whole entry, stated change not applied): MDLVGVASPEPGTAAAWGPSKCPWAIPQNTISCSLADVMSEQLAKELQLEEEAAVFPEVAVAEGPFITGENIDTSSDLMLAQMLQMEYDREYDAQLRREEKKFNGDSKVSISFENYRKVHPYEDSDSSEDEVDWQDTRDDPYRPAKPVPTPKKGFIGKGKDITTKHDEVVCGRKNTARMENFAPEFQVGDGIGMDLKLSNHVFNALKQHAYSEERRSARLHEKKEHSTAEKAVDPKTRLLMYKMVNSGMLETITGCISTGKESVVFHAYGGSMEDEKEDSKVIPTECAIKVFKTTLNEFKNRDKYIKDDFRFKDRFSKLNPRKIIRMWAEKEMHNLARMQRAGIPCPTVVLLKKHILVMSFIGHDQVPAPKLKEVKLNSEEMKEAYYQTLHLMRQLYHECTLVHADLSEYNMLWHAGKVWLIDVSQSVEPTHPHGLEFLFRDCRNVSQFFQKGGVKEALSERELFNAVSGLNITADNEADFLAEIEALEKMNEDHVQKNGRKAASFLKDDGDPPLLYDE
Sequence of 468 kinases including some pathogenic mutants (Homo sapiens, UniProt P00533, DEL746-750) (P00533 other isoform, or with tags, fused parts or gaps DEL746-750): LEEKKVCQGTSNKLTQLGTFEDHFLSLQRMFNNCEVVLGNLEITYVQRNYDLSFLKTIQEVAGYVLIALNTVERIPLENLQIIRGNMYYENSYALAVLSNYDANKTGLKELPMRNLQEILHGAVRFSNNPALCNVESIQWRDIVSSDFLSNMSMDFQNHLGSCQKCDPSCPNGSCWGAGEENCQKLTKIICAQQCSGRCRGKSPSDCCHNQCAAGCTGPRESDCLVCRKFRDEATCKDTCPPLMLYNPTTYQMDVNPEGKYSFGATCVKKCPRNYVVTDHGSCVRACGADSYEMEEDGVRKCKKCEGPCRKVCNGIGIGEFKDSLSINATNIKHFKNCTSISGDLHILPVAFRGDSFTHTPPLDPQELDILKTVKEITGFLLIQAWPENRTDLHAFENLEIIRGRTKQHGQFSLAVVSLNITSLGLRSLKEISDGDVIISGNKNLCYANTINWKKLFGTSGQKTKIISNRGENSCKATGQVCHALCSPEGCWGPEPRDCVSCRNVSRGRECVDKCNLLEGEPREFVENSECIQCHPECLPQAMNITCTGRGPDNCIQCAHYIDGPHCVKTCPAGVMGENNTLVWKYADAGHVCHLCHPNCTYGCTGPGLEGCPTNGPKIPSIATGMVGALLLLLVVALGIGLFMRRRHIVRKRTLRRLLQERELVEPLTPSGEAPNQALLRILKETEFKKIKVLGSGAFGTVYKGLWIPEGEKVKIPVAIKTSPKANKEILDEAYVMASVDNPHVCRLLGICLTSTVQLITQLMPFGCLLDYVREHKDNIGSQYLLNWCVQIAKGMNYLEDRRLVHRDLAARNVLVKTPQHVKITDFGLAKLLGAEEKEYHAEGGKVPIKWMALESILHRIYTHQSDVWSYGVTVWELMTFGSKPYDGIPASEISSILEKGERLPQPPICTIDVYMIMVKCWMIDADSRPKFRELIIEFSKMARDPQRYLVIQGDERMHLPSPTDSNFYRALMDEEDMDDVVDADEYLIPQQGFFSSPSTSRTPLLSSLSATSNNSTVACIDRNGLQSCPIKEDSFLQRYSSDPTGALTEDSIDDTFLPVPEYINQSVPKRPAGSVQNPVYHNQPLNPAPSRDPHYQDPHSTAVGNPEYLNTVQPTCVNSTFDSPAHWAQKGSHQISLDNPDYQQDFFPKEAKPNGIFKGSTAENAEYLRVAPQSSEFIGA
Sequence of 468 kinases including some pathogenic mutants (Homo sapiens, UniProt P51451) (P51451 whole entry, change not shown): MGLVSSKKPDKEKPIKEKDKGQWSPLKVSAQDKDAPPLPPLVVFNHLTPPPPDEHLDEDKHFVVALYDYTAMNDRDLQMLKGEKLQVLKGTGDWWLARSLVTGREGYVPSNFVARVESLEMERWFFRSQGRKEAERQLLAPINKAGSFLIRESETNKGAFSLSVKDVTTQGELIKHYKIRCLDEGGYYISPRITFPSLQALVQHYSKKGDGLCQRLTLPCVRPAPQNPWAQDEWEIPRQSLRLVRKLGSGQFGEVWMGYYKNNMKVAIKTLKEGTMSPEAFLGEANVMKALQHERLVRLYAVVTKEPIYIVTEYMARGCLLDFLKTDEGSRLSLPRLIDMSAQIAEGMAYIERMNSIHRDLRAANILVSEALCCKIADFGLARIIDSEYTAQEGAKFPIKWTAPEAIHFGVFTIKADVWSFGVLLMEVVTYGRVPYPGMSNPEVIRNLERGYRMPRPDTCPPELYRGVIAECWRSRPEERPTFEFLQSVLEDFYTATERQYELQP
Sequence of 468 kinases including some pathogenic mutants (Homo sapiens, UniProt P49336) (P49336 whole entry, change not shown): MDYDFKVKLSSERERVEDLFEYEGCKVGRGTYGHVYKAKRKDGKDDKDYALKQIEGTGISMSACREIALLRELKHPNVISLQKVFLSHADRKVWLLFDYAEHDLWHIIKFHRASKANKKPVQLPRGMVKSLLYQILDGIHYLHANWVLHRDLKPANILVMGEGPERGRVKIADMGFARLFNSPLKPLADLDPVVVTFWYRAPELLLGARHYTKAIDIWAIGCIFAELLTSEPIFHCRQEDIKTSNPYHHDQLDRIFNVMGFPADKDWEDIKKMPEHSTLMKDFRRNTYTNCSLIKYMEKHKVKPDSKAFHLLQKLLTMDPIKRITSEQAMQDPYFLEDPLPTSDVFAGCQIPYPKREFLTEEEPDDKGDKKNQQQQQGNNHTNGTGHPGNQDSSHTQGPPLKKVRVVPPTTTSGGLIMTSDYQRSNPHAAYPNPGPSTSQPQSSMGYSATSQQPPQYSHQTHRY
Sequence of 468 kinases including some pathogenic mutants (Homo sapiens, UniProt P49137) (P49137 whole entry, change not shown): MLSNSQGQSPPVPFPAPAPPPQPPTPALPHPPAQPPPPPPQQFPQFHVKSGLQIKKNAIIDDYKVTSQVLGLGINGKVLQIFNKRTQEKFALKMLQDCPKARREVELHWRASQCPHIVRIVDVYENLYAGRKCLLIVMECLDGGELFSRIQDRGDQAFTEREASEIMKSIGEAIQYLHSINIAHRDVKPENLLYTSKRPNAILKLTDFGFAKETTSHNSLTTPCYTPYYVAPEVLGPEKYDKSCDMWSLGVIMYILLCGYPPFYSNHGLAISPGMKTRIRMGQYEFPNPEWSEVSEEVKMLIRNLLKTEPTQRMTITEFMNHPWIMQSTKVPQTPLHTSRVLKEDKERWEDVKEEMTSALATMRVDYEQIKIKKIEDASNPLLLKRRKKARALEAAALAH
Sequence of 468 kinases including some pathogenic mutants (Homo sapiens, UniProt O94768) (O94768 whole entry, change not shown): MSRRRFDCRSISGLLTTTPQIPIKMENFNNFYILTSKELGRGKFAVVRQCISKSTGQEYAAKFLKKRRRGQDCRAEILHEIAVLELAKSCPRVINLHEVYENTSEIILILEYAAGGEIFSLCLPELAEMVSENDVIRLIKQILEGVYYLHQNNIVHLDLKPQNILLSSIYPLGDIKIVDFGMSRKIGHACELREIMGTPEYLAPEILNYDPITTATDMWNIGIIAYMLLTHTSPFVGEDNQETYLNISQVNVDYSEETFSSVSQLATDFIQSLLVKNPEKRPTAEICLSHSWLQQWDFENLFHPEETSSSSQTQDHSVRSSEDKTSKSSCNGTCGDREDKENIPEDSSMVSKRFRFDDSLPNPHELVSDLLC

## CN1C(=O)[C@@H](N2CCc3c(nn(Cc4ccccc4)c3C(N)=O)C2=O)COc2cc(Cl)ccc21 [Compound 10, (S)-2-benzyl-6-(8-chloro-5-methyl-4-oxo-2,3,4,5-tetrahydrobenzo[b][1,4]oxazepin-3-yl)-7-oxo-4,5,6,7-tetrahydro-2H-pyrazolo[3,4-c]pyridine-3-carboxamide]
[1]
  remaining activity at 1 µM: 100%
[2]
  remaining activity at 0.1 µM: 69%
[3]
  remaining activity at 1 µM: 100%
[4]
  remaining activity at 0.1 µM: 78%
[5]
  remaining activity at 0.1 µM: 81%
[6]
  remaining activity at 0.1 µM: 70%
[7]
  remaining activity at 0.1 µM: 84%
[8]
  remaining activity at 0.1 µM: 53%
[9]
  remaining activity at 0.1 µM: 76%
[10]
  remaining activity at 0.1 µM: 100%
[11]
  remaining activity at 0.1 µM: 100%
[12]
  remaining activity at 0.1 µM: 63%
[13]
  remaining activity at 0.1 µM: 78%
[14]
  remaining activity at 0.1 µM: 100%
[15]
  remaining activity at 0.1 µM: 73%
[16]
  remaining activity at 0.1 µM: 84%
[17]
  remaining activity at 0.1 µM: 86%
[18]
  remaining activity at 1 µM: 100%
[19]
  remaining activity at 1 µM: 100%
[20]
  remaining activity at 0.1 µM: 81%
[21]
  remaining activity at 0.1 µM: 76%
[22]
  remaining activity at 0.1 µM: 69%
[23]
  remaining activity at 0.1 µM: 79%
[24]
  remaining activity at 0.1 µM: 73%
[25]
  remaining activity at 0.1 µM: 88%
[26]
  remaining activity at 0.1 µM: 94%
[27]
  remaining activity at 0.1 µM: 100%
[28]
  remaining activity at 0.1 µM: 58%
[29]
  remaining activity at 0.1 µM: 77%
